Results published in paper PMC5862592, “CDK8/19 inhibition induces premature G1/S transition and ATR-dependent cell death in prostate cancer cells” (Oncotarget, 2018).
Read-outs that look alike come from different tables or passages of the source.

Tests used:
Experiment in all cases: biochemical
Set-up in all cases: KINOMEscan active site-directed competition binding assay (DiscoveRx), 456 kinases, per cent of control at 300 nM
Settings in all cases: read-out: Percent of Control (%)
[1] = target: T1, ABL1(Y253F)-phosphorylated (Homo sapiens, UniProt P00519, Y253F)
T1 construct: phosphorylated
Outline: (§1)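 At 300 nmol/L, compounds were assessed for kinase binding in an active site-directed competition format covering 456 kinases.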

ACVR2B = ACVR2B (Homo sapiens, UniProt Q13705)
Outline: as §1

AKT1 = AKT1 (Homo sapiens, UniProt P31749)
Outline: as §1

AMPK-alpha2 = target: T2, AMPK-alpha2 (Homo sapiens, UniProt P54646)
T2 construct: gene PRKAA2
Outline: as §1

BMPR2 = BMPR2 (Homo sapiens, UniProt Q13873)
Outline: as §1

CDC2L2 = target: T3, CDC2L2 (Homo sapiens, UniProt Q9UQ88)
T3 construct: gene CDK11A
Outline: as §1

CDK4-cyclinD3 = target: T4, CDK4-cyclinD3 (Homo sapiens, UniProt P11802)
T4 construct: cyclinD3
Outline: as §1

CDK8 = CDK8 (Homo sapiens, UniProt P49336)
Outline: as §1

CLK3 = CLK3 (Homo sapiens, UniProt P49761)
Outline: as §1

EGFR(L747-T751del,Sins) = EGFR(L747-T751del,Sins) (Homo sapiens, UniProt P00533, DEL747-750/T751S)
Outline: as §1

EPHA8 = EPHA8 (Homo sapiens, UniProt P29322)
Outline: as §1

KIT(D816H) = KIT(D816H) (Homo sapiens, UniProt P10721, D816H)
Outline: as §1

NEK6 = NEK6 (Homo sapiens, UniProt Q9HC98)
Outline: as §1

NEK7 = NEK7 (Homo sapiens, UniProt Q8TDX7)
Outline: as §1

PIK4CB = target: T5, PIK4CB (Homo sapiens, UniProt Q9UBF8)
T5 construct: gene PI4KB
Outline: as §1

PRKD1 = PRKD1 (Homo sapiens, UniProt Q15139)
Outline: as §1

PRP4 = target: T6, PRP4 (Homo sapiens, UniProt Q13523)
T6 construct: gene PRPF4B
Outline: as §1

RIPK2 = RIPK2 (Homo sapiens, UniProt O43353)
Outline: as §1

STK16 = STK16 (Homo sapiens, UniProt O75716)
Outline: as §1

TRKC = target: T7, TRKC (Homo sapiens, UniProt Q16288)
T7 construct: gene NTRK3
Outline: as §1

WNK3 = WNK3 (Homo sapiens, UniProt Q9BYP7)
Outline: as §1

YSK4 = target: T8, YSK4 (Homo sapiens, UniProt Q56UN5)
T8 construct: gene MAP3K19
Outline: as §1

Chain of CDK8 (P49336 whole entry): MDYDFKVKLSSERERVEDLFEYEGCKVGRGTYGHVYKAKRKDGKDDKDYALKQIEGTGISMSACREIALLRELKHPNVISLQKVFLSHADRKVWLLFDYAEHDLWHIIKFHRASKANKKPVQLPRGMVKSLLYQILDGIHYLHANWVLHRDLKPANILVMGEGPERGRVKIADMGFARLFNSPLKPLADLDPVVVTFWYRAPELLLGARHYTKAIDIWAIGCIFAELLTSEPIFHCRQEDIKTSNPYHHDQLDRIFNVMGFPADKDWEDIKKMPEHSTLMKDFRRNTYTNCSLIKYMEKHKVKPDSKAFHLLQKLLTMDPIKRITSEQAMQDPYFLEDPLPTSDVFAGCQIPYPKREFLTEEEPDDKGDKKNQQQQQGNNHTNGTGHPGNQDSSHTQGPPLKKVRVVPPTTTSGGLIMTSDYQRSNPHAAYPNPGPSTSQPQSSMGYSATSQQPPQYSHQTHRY
Chain of NEK6 (Q9HC98 whole entry): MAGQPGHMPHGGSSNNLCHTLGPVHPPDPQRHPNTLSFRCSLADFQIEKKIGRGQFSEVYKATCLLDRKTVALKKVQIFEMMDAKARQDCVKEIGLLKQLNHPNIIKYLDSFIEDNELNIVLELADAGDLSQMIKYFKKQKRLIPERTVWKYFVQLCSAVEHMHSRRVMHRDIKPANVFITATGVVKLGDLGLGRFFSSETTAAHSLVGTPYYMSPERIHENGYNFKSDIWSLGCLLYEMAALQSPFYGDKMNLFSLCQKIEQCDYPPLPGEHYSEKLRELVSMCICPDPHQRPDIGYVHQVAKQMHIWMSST
Chain of PRKD1 (Q15139 whole entry): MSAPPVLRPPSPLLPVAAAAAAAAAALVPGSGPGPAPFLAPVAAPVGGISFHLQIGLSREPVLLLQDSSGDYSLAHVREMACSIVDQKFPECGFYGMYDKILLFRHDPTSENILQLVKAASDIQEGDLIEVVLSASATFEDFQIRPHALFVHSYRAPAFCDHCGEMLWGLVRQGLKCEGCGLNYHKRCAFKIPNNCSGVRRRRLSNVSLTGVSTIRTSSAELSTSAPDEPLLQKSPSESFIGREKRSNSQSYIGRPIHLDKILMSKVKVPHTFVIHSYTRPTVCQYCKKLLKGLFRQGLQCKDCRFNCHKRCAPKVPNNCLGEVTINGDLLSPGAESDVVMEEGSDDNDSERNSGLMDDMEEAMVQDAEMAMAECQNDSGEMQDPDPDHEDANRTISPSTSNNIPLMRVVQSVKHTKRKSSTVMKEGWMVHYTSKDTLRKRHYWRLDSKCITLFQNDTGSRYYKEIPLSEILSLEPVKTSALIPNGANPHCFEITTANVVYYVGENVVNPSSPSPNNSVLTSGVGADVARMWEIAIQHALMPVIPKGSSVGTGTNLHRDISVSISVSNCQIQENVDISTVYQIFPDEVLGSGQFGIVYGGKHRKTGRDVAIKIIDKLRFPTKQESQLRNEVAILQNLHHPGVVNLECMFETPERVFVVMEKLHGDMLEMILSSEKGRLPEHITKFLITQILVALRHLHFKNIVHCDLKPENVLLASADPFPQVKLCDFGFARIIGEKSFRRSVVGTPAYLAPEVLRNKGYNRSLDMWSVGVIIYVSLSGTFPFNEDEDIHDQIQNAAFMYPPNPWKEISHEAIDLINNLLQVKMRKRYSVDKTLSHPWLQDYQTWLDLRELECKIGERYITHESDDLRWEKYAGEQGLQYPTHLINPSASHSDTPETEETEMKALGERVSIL
Chain of CLK3 (P49761 whole entry): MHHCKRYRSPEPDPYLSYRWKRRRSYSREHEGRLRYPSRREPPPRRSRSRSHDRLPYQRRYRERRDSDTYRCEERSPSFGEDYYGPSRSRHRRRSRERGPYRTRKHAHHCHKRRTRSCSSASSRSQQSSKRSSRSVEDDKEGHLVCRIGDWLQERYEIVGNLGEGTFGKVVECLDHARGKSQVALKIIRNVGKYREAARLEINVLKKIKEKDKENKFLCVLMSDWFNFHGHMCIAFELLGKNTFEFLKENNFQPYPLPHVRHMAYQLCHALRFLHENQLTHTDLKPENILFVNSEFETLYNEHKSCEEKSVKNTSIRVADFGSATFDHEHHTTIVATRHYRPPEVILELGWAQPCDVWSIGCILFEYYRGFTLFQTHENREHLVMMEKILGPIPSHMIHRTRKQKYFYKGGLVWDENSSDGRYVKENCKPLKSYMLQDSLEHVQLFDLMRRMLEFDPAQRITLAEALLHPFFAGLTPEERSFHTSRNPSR
Chain of AKT1 (P31749 whole entry): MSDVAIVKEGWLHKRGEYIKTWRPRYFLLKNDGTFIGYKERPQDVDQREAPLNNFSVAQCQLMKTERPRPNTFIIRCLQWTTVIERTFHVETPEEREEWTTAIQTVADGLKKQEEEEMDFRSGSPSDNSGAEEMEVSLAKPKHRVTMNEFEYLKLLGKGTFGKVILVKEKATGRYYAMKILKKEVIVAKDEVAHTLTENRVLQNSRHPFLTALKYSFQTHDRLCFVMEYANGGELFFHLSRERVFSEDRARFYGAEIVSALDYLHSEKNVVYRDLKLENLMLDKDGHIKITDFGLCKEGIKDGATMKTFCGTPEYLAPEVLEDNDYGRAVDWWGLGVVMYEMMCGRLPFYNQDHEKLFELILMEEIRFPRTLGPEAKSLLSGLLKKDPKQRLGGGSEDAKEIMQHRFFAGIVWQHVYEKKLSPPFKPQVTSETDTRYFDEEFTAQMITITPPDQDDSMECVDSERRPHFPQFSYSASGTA
T4 sequence (P11802 whole entry): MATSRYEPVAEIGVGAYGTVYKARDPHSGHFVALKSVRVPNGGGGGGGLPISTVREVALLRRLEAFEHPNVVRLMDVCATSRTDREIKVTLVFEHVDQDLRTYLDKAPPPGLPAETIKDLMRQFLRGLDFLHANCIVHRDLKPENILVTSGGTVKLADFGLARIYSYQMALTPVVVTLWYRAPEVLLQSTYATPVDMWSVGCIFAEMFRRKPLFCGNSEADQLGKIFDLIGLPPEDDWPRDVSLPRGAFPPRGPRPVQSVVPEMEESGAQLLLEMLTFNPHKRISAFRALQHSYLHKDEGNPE
T4 sequence (P30281 whole entry partner): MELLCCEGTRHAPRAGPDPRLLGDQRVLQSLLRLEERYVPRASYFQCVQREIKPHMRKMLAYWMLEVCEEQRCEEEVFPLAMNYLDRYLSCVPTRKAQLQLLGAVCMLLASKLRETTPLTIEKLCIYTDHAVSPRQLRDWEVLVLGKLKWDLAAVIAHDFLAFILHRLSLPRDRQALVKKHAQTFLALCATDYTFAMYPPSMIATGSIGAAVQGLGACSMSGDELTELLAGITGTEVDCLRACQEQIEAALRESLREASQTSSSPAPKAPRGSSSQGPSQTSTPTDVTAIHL
T8 sequence (Q56UN5 whole entry): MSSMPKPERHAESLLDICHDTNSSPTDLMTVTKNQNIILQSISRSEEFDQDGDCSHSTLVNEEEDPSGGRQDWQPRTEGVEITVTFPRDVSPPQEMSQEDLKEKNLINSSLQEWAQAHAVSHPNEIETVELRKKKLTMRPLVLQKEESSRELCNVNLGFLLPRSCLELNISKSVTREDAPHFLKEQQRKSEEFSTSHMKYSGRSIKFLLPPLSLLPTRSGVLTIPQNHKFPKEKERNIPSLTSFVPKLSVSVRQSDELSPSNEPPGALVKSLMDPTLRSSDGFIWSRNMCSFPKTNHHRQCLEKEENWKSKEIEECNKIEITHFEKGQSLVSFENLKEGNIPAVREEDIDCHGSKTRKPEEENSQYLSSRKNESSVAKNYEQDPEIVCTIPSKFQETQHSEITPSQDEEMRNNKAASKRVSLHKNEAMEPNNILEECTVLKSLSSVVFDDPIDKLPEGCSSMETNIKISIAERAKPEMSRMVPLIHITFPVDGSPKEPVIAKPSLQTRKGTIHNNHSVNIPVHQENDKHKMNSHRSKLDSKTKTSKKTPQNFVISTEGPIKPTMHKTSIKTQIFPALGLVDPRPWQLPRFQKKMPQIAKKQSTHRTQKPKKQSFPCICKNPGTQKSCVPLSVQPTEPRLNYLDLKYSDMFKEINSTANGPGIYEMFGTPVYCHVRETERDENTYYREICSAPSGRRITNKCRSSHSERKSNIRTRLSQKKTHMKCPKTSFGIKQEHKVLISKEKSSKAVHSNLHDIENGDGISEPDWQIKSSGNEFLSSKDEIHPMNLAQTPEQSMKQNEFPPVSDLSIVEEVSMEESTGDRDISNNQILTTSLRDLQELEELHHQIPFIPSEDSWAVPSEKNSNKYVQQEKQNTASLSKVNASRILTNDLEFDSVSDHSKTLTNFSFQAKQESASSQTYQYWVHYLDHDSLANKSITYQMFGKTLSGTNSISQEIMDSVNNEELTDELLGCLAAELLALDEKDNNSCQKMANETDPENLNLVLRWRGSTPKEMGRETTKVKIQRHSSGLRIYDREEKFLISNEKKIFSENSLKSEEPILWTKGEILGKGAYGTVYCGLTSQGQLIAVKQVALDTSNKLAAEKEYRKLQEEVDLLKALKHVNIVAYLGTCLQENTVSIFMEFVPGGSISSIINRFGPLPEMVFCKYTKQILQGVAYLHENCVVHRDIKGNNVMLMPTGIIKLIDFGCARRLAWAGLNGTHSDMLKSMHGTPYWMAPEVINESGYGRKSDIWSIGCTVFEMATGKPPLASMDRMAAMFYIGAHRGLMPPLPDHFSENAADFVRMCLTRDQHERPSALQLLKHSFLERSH
Chain of STK16 (O75716 whole entry): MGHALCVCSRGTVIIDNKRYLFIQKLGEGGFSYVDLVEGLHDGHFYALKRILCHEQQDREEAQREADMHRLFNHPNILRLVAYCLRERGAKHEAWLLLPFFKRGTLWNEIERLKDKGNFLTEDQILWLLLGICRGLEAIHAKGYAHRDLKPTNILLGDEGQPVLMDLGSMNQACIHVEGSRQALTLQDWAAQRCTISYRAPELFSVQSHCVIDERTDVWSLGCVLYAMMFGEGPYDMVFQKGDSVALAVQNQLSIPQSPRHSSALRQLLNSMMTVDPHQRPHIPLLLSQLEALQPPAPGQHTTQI

**Q.** For `O=C(/C=C/c1cnccc1-c1ccc(F)cc1)Nc1ccc(CCc2nnco2)cc1` [T-418, (2E)-3-(4-(4-fluorophenyl)pyridin-3-yl)-N-(4-(2-(1,3,4-oxadiazol-2-yl)ethyl)phenyl)acrylamide], which remaining binding at 0.3 µM ([1]; sheet T-418) is on record?
**A.** Its remaining binding at 0.3 µM is 98%.

**Q.** What about the remaining binding at 0.3 µM (ACVR2B; sheet T-418) of the same molecule?
**A.** Its remaining binding at 0.3 µM is 80%.

**Q.** What about the remaining binding at 0.3 µM (AKT1; sheet T-418) of the same molecule?
**A.** Its remaining binding at 0.3 µM is 85%.

**Q.** What about the remaining binding at 0.3 µM (AMPK-alpha2; sheet T-418) of the same molecule?
**A.** Its remaining binding at 0.3 µM is 100%.

**Q.** What about the remaining binding at 0.3 µM (BMPR2; sheet T-418) of the same molecule?
**A.** The remaining binding at 0.3 µM was 86%.

**Q.** And the remaining binding at 0.3 µM (CDC2L2; sheet T-418)?
**A.** The remaining binding at 0.3 µM was 100%.

**Q.** What about the remaining binding at 0.3 µM (CDK4-cyclinD3; sheet T-418) of the same molecule?
**A.** The remaining binding at 0.3 µM was 95%.

**Q.** And the remaining binding at 0.3 µM (CDK8; sheet T-418)?
**A.** Its remaining binding at 0.3 µM is 48%.

**Q.** And the remaining binding at 0.3 µM (CLK3; sheet T-418)?
**A.** The remaining binding at 0.3 µM was 92%.

**Q.** What about the remaining binding at 0.3 µM (EGFR(L747-T751del,Sins); sheet T-418) of the same molecule?
**A.** Its remaining binding at 0.3 µM is 100%.

**Q.** And the remaining binding at 0.3 µM (EPHA8; sheet T-418)?
**A.** The remaining binding at 0.3 µM was 88%.

**Q.** And the remaining binding at 0.3 µM (KIT(D816H); sheet T-418)?
**A.** The remaining binding at 0.3 µM was 74%.

**Q.** What about the remaining binding at 0.3 µM (NEK6; sheet T-418) of the same molecule?
**A.** The remaining binding at 0.3 µM was 98%.

**Q.** What about the remaining binding at 0.3 µM (NEK7; sheet T-418) of the same molecule?
**A.** Its remaining binding at 0.3 µM is 100%.

**Q.** And the remaining binding at 0.3 µM (PIK4CB; sheet T-418)?
**A.** Its remaining binding at 0.3 µM is 100%.

**Q.** And the remaining binding at 0.3 µM (PRKD1; sheet T-418)?
**A.** Its remaining binding at 0.3 µM is 96%.

**Q.** And the remaining binding at 0.3 µM (PRP4; sheet T-418)?
**A.** Its remaining binding at 0.3 µM is 82%.

**Q.** What about the remaining binding at 0.3 µM (RIPK2; sheet T-418) of the same molecule?
**A.** The remaining binding at 0.3 µM was 100%.

**Q.** What about the remaining binding at 0.3 µM (STK16; sheet T-418) of the same molecule?
**A.** The remaining binding at 0.3 µM was 86%.

**Q.** And the remaining binding at 0.3 µM (TRKC; sheet T-418)?
**A.** Its remaining binding at 0.3 µM is 82%.

**Q.** And the remaining binding at 0.3 µM (WNK3; sheet T-418)?
**A.** Its remaining binding at 0.3 µM is 100%.

**Q.** And the remaining binding at 0.3 µM (YSK4; sheet T-418)?
**A.** Its remaining binding at 0.3 µM is 100%.

**Q.** What does the source list for `Cc1ncccc1Oc1sc(C(N)=O)c2c1-c1c(cnn1C)CC2` [T-474, 1-methyl-8-((2-methylpyridin-3-yl)oxy)-4,5-dihydro-1H-thieno[3,4-g]indazole-6-carboxamide]?
**A.** remaining binding at 0.3 µM [1]: 100%; remaining binding at 0.3 µM (ACVR2B): 81%; remaining binding at 0.3 µM (AKT1): 98%; remaining binding at 0.3 µM (AMPK-alpha2): 100%; remaining binding at 0.3 µM (BMPR2): 99%; remaining binding at 0.3 µM (CDC2L2): 98%; remaining binding at 0.3 µM (CDK4-cyclinD3): 98%; remaining binding at 0.3 µM (CDK8): 9.8%; remaining binding at 0.3 µM (CLK3): 100%; remaining binding at 0.3 µM (EGFR(L747-T751del,Sins)): 87%; remaining binding at 0.3 µM (EPHA8): 91%; remaining binding at 0.3 µM (KIT(D816H)): 78%; remaining binding at 0.3 µM (NEK6): 100%; remaining binding at 0.3 µM (NEK7): 100%; remaining binding at 0.3 µM (PIK4CB): 100%; remaining binding at 0.3 µM (PRKD1): 96%; remaining binding at 0.3 µM (PRP4): 89%; remaining binding at 0.3 µM (RIPK2): 100%; remaining binding at 0.3 µM (STK16): 88%; remaining binding at 0.3 µM (TRKC): 87%; remaining binding at 0.3 µM (WNK3): 100%; remaining binding at 0.3 µM (YSK4): 100%
